# Data reported in patent US20240075004A1, “VERY-LONG-CHAIN POLYUNSATURATED FATTY ACIDS, ELOVANOID HYDROXYLATED DERIVATIVES, AND METHODS OF USE” (The Board of Supervisors of Louisiana State University and …, priority 2020, published 2024).
# How the values were obtained:
# [1] = system: HNEpC; assay: HNEpC challenged with HDM: SPiDER β-galactosidase staining; assay type: cell-based, human; settings: 500 nM; HDM 30 μg/ml
# Method: ELVN-34 protects HNEpC from the senescence-associated secretory phenotype (SASP response). Representative images of HNEpC stained with Hoechst 33342 and spider β-galactosidase—(Panel A) untreated (Control), (Panel B) challenged with HDM (30 μg/ml), and (Panel C) HNEpC treated with HDM and ELVN-34:6 Na (500 nM). (Panel D) Quantitative assessment of increased SASP response (measured by the spider β-galactosidase staining) upon HDM exposure (30 μg/ml). ELVN-34:6 Na (500 nM) treatment reduces the number of beta-gal positive HNEpC induced by HDM. […] (*p<0.05).
# Cryopreserved human nasal epithelial cells HNEpC were purchased from PromoCell GmbH, Heidelberg, Germany. (Catalog #C-1260, Lot #436Z028).
# The cells used for our experiments are primary nasal epithelial cells obtained from the nasal mucosa of a person.
# Cells were received in passage (P1) and were sub-culture to passage (P3), which were used for all the experiments.
# HNEpC were grown to 80% confluency in Promocell's Airway epithelial cell growth medium (Catalog #C-21060) which was supplemented with airway epithelial cell growth medium supplement pack (Catalog #C-39160) and Penicillin/Streptomycin.
# [2] = system: human RPE cells; assay: Oxidative-stress and Erastin induced cell death in human RPE cells; assay type: cell-based
# [3] = system: pro-inflammatory transcriptome and pro-homeostatic pathways in RPE single-cells; assay: UOS transcriptome in RPE single-cells; assay type: cell-based; settings: 96 per sample
# Excerpt: Dots in box plots represent expression of the gene for a single RPEC (total of 96 per sample). P<0.001 (***), P<0.01 (**), One-way Anova, with Post-Hoc Tukey HSD test for multiple comparisons.
# [4] = system: RPE and PRC; assay: Subretinal injection of OAβ in WT mice: fundus/OCT and ZO-1 whole flat mount of RPE; assay type: in vivo, C57BL/6J WT mice; settings: OAβ-injected retina, 10 μM subretinal, 7 days; non-injected retina 105 μm
# Method: All animal experiments were performed according to ARVO Statement for the Use of Animals in Ophthalmic and Vision Research, and the protocol was approved by LSU Health New Orleans' Institutional Animal Care and Use Committee (IACUC). 6-month-old 5×FAD mice (stock number: 34848-JAX, The Jackson Laboratory, Bar Harbor, ME, USA), co-overexpress FAD mutant forms of human amyloid precursor protein (the Swedish mutation: K670N, M671L; the Florida mutation: I716V; and the London mutation: V7171) and presenilin 1 (PS1, encoded by Psen1: M146L, L286V) transgenes under transcriptional control of the neuron-specific mouse Thy1 promoter. 5×FAD mice were hemizygotes with respect to the transgenes and non-transgenic WT littermates. Genotyping was performed by PCR of tail DNA. All analyses were carried out blind with respect to the mice genotype. For the subretinal injection, 6-month-old C57BL/6J mice were anesthetized by an intraperitoneal injection of ketamine/xylazine, pupils dilated with 1.0% tropicamide (Akorn, IL, USA); and 0.5% Proparacaine Hydrochloride (Akorn) was applied for topical anesthesia. Eyes were punctured with a 30-gauge needle between the corneoscleral junction and the ora serrata into the vitreous cavity without disturbing the lens. Compounds were delivered to the subretinal region using a 33-gauge blunt needle attached to a 5 μl Hamilton syringe (Hamilton Company, Reno, NV, USA) under a dissecting microscope. Non-injected mice were used as negative control while the PBS injected mice were used for sham. The injection volume was 2 μl containing PBS, 10 μM of OAβ, 10 μM of OAβ+200 ng ELV-N-32, 200 ng ELV-N-32 alone, 10 μM of OAβ+200 ng ELV-N-34 or 200 ng ELV-N-34 alone (n=12/group). All groups received topical drops: PBS only or ELV-N-32 (200 nM) or ELV-N-34 (200 nM), twice a day for 3 or 7 days.
# For the whole mount RPE staining, eyeballs were enucleated and pre-fixed in 4% PFA for 15 min. Then the eye cup containing RPE sheet were fixed in 4% PFA for 30 min, washed in PBS 3× following the blocking step for 1 h at room temperature. The immunostaining was performed by incubating primary antibody (ZO-1) for 48 h at 4° C. Then the eye cups were washed 3× with PBS and incubated with the secondary antibody for 12 h at 4° C. The primary human RPE cells as well as mouse eye cups were embedded in ProLong™ Gold Antifade Mounting medium (Thermo Fisher Scientific) between two glass coverslips. Pictures were taken with Olympus FV1200 microscope (Olympus, Japan). Images were analyzed by software ImageJ (rsb.info.nih.gov/ij/).
# 7 days post-injection, mice were anesthetized with ip ketamine/xylazine, pupil dilated by topical 1.0% tropicamide and placed in a custom-built holder for OCT imaging (body temperature maintained at 38° C. with a heat pad). Retinas were imaged along the horizontal meridian through the optic nerve head using a Heidelberg Spectralis HRA OCT system (Heidelberg Engineering, Heidelberg, Germany). Axial resolution is […]. The raw OCT B-scans cross-sectional images were exported with the scale in m and opened in ImageJ (http//imagej.nih.gov/ij). The PRC layer thickness was defined as the width from the tip of the outer nuclear layer, right after the outer plexiform layer, to the outer segments of PRC. Three measurements were made on the same scan and averaged. Mean and standard error of the mean (SEM) were calculated (n=4/group). Students' T-test was used to calculate statistical significance and a P-value less than 0.05 was considered significant.
compound,measurement,setting,value
"CC/C=C\C[C@H](O)\C=C/C=C/C=C/[C@H](O)C/C=C\C/C=C\CCCCCCCCCCCCCCC(=O)[O-].[Na+] [ELVN-34:6 Na, sodium (16Z,19Z,22R,23E,25E,27Z,29S,31Z)-22,29-dihydroxytetratriaconta-16,19,23,25,27,31-hexaenoate]","number of beta-gal positive HNEpC (SASP response, spider β-galactosidase staining)",[1],reduces
"CC/C=C\C[C@H](O)\C=C/C=C/C=C/[C@H](O)C/C=C\C/C=C\CCC(=O)O [NPD1, 10R,17S-dihydroxy-docosa-4Z,7Z,11E,13E,15Z,19Z-hexaenoic acid, reference compound]",oxidative-stress and Erastin induced cell deaths,[2],counteracted
same,UOS up-regulation of pro-inflammatory transcriptome and down-regulation of pro-homeostatic pathways,[3],suppress these changes
OAβ: Aβ (1-42) oligomerized for 24 h at 4° C.; cytotoxic challenge injected subretinally or added to cells [reference compound],PRC layer thickness (OCT),[4],35 μm
